Measured values taken from patent US4914086A, “Method for treating African human and veterinary trypanosomiases” (priority 1987, dated 1990).
Entries after “also recorded” stand apart in the source; their conditions may differ.

Key:
T. b. brucei EATRO 110 = test: Drug screen, acute EATRO 110 mouse infection (Tables 1, 3); type: in vivo, Trypanosoma brucei brucei (in Swiss-Webster mice)
Description: (§1) T. b. brucei EATRO 110 isolate was maintained as described (Bacchi, C. J., H. C. Nathan, S. H. Hutner, P. P. McCann and A. Sjoerdsma; Polyamine metabolism: a potential chemotherapeutic target in trypanosomes. Science 210: 332-334, 1980). It produces an acute, rapidly fatal parasitemia which is lethal to mice 3-5 days after inoculation. Two T. B. brucei strains, TREU 667 and LUMP 1001 developed by Jennings and coworkers (Jennings, F. W., D. D. Whitelaw and G. M. Urquhart; The relationship between duration of infection with Trypanosoma brucei in mice and the efficacy of chemotherapy. Parasitology 75: 143-153, 1977/Jennings, F. W. and G. D. Gray; Relapsed parasitemia following chemotherapy of chronic T. brucei infections in mice and its relation to cerebral trypanosomes; Contr. Microbiol. Immunol. 7 147-154, 1983) were used as CNS models. Both produce infections which are refractory to Berenil® (diminazene aceturate) and develop within 21 days after inoculation. They are not usually fatal until >40 days after inoculation. LUMP 1001 causes a more virulent CNS infection than TREU 667, and is regarded as more difficult to cure (Jennings, F. W. and G. D. Gray. Relapsed parasitemia following chemotherapy of chronic T. brucei infections in mice and its relation to cerebral trypanosomes. Contr. Microbiol. Immunol. 7 147-154, 1983).
Swiss-Webster (25-30 g) mice were used throughout. In the EATRO 110 model, groups of 100 mice were infected (10^5 trypanosomes/mouse) and the infection was allowed to develop 24 hours before commencing therapy. Animals were divided into groups of 5 before treatment. Cured animals survived >30 days beyond deaths of controls. All compounds were administered by i.p. injection.
Other methods as in Table 1.

T. b. brucei LUMP 1001 = test: CNS model, T. b. brucei LUMP 1001 infection in mice (Table 5); type: in vivo, Trypanosoma brucei brucei (in Swiss-Webster mice); conditions: for efficacy in CNS model in words: LUMP 1001
Description: as §1
The models for […] nervous system infections used TREU 667 and LUMP 1001 strains which were stored frozen and passaged once in rats before infection of mice. Maintenance and use of these screens were as described (Clarkson, A. B. Jr., C. J. Bacchi, G. H. Mellon, H. C. Nathan, P. P. McCann and A. Sjoerdsma. Efficacy of DFMO+blemoycin in a mouse model of central nervous system African trypanosomiasis. Proc. Natl. Acad. Sci. USA. 80: 5729-5733, 1983/Clarkson, A. B. Jr., E. J. Biene, C. J. Bacchi, P. P. McCann, S. H. Hutner and A. Sjoerdsma. New drug combination for experimental late stage African trypanosomiasis: DFMO with suramin. Am. J. Trop. Med. Hyg. 33: 1073-1077, 1984/Dube, D. K., G. Mpimbaza, A. C. Allison, E. Lederer and L. Rovis. Antitrypanosomal activity of sinefungin, Am. J. Trop. Med. Hyg. 32: 31-33, 1983/Fish, W. R., J. J. Marr, R. L. Berens, D. L. Looker, D. J. Nelson, S. LaFon and A. E. Balber. Inosine analogs as chemotherapeutic agents for African trypanosomes: metabolism in trypanosomes and efficacy in tissue culture. Anti-microb. Ag. Chemother. 27: 33-36, 1985/Clazer, R. I., and L. S. Lloyd. Effects of 8-azaadenosine and formycin on cell lethality and the synthesis and methylation of nucleic acids in human colon carcinoma cells in culture. Biochem. Pharmacol. 31: 3207-3214, 1982/Bacchi, C. J., H. C. Nathan, A. B. Clarkson, Jr., E. J. Bienen, A. J. Bitonti, P. P. McCann and A. Sjoerdsma. Activity of the ornithine decarboxylase inhibitors DL-α-difluoromethylornithine and monofluormethyldehydroornithine methylester alone and in combination with suramin against Trypanosoma brucei brucei central nervous system models, Am. J. Trop. Med. Hyg. (in press)). Briefly, groups of 100-120 mice were infected and the infections allowed to develop until day 21, when the animals were separated into groups of 10 and therapy commenced. Controls were treated with Berenil (40 mg/kg) on day 21. […] Parasitemia was followed by examining tail vein blood smears once weekly. Animals which had relapsed were removed from cages.

[1] = Table 1, 5 mg/kg i.p. (9-DINO, sinefungin once daily for 3 days)
[2] = Table 1, 10 mg/kg i.p. (9-DINO, sinefungin once daily for 3 days)
[3] = Table 1, 25 mg/kg i.p. (9-DINO, sinefungin once daily for 3 days)
[4] = Table 1, 50 mg/kg i.p. (9-DINO, sinefungin once daily for 3 days)
[5] = Table 1, 100 mg/kg i.p. (9-DINO, sinefungin once daily for 3 days)
[6] = Table 1, 200 mg/kg i.p. once daily for 3 days
[7] = Table 1, 400 mg/kg i.p. once daily for 3 days
[8] = Table 3, 5 mg/kg i.p. once daily for 3 days
[9] = Table 3, 10 mg/kg i.p. once daily for 3 days
[10] = Table 3, 25 mg/kg i.p. once daily for 3 days
[11] = Table 1, 0.5 mg/kg i.p. once daily for 3 days
[12] = Table 1, 1 mg/kg i.p. once daily for 3 days
[13] = Table 1, 2.5 mg/kg i.p. (9-DINO, sinefungin once daily for 3 days)
[14] = Table 3, 0.5 mg/kg i.p. once daily for 3 days
[15] = Table 3, 1.0 mg/kg i.p. once daily for 3 days

Compound: O=c1[nH]cnc2c([C@@H]3O[C@H](CO)[C@@H](O)[C@H]3O)c[nH]c12 [9-DINO, 7-beta-D-ribofuranosyl-4-oxo-3H, 5H-pyrrolo (3,2-d) pyrimidine]
- cure rate (T. b. brucei EATRO 110; 50-100 mg/kg, EATRO 110): 100%
- curative / active dose range (T. b. brucei EATRO 110; EATRO 110, text): 25 to 200 mg/kg
- # Cured/Total (T. b. brucei EATRO 110; [1]): 0/5
- % Cured (T. b. brucei EATRO 110; [1]): 0%
- # Cured/Total (T. b. brucei EATRO 110; [2]): 2/30
- % Cured (T. b. brucei EATRO 110; [2]): 7%
- # Cured/Total (T. b. brucei EATRO 110; [3]): 15/20
- % Cured (T. b. brucei EATRO 110; [3]): 50%
- # Cured/Total (T. b. brucei EATRO 110; [4]): 4/5
- % Cured (T. b. brucei EATRO 110; [4]): 80%
- # Cured/Total (T. b. brucei EATRO 110; [5]): 5/5
- % Cured (T. b. brucei EATRO 110; [5]): 100%
- # Cured/Total (T. b. brucei EATRO 110; [6]): 5/5
- % Cured (T. b. brucei EATRO 110; [6]): 100%
- # Cured/Total (T. b. brucei EATRO 110; [7]): 3/5
- % Cured (T. b. brucei EATRO 110; [7]): 60%
- # Cured/Total (T. b. brucei EATRO 110; [8]): 0/5
- % Cured (T. b. brucei EATRO 110; [8]): 0%
- # Cured/Total (T. b. brucei EATRO 110; [9]): 2/30
- % Cured (T. b. brucei EATRO 110; [9]): 7%
- # Cured/Total (T. b. brucei EATRO 110; [10]): 15/20
- % Cured (T. b. brucei EATRO 110; [10]): 75%
- activity in the acute (short term) EATRO 110 model, in words (T. b. brucei EATRO 110; listed as 9-deazainosine): greatest activity; also recorded: most active analog of the two
- activity in the acute (short term) EATRO 110 model, in words (T. b. brucei EATRO 110; text summary): greatest activity; also recorded: highly effective; also recorded: active against acute models; also recorded: more effective than sinefungin, allopurinol and allopurinol riboside
- activity in the acute (short term) EATRO 110 model, in words (T. b. brucei EATRO 110; text summary, listed as 9DINO): active against an acute infection
- # Cured/Total (T. b. brucei LUMP 1001; 50 mg/kg i.p., 7 days): 0/10
- % Cured (T. b. brucei LUMP 1001; 50 mg/kg i.p., 7 days): 0%
- Avg. Day of Relapse (Range) (T. b. brucei LUMP 1001; 50 mg/kg i.p., 7 days): 36 (35-44) Day
- # Cured/Total (T. b. brucei LUMP 1001; 100 mg/kg i.p., 7 days): 0/9
- % Cured (T. b. brucei LUMP 1001; 100 mg/kg i.p., 7 days): 0%
- Avg. Day of Relapse (Range) (T. b. brucei LUMP 1001; 100 mg/kg i.p., 7 days): 38 (35-44) Day
- # Cured/Total (T. b. brucei LUMP 1001; 250 mg/kg i.p., 7 days): 0/10
- % Cured (T. b. brucei LUMP 1001; 250 mg/kg i.p., 7 days): 0%
- Avg. Day of Relapse (Range) (T. b. brucei LUMP 1001; 250 mg/kg i.p., 7 days): 49 (35-63) Day
- efficacy in CNS model in words (T. b. brucei LUMP 1001): did not cure CNS infections

Compound: Nc1ncnc2c1ncn2[C@@H]1O[C@H](C[C@@H](N)CC[C@H](N)C(=O)O)[C@@H](O)[C@H]1O [Sinefungin, 6,9-Diamino-1-(6-amino-9H-purin-9-yl)-1,5,6,7,8,9-hexadeoxy-beta-D-ribo-decofuranuronic acid]
- % active (T. b. brucei EATRO 110; 25 mg/kg, single dose): 80%
- # Cured/Total (T. b. brucei EATRO 110; [11]): 0/15
- % Cured (T. b. brucei EATRO 110; [11]): 0%
- # Cured/Total (T. b. brucei EATRO 110; [12]): 0/20
- % Cured (T. b. brucei EATRO 110; [12]): 0%
- # Cured/Total (T. b. brucei EATRO 110; [13]): 0/5
- % Cured (T. b. brucei EATRO 110; [13]): 0%
- # Cured/Total (T. b. brucei EATRO 110; [1]): 9/15
- % Cured (T. b. brucei EATRO 110; [1]): 60%
- # Cured/Total (T. b. brucei EATRO 110; [2]): 8/15
- % Cured (T. b. brucei EATRO 110; [2]): 53%
- # Cured/Total (T. b. brucei EATRO 110; [3]): 4/5
- % Cured (T. b. brucei EATRO 110; [3]): 80%
- # Cured/Total (T. b. brucei EATRO 110; [14]): 0/15
- % Cured (T. b. brucei EATRO 110; [14]): 0%
- # Cured/Total (T. b. brucei EATRO 110; [15]): 0/20
- % Cured (T. b. brucei EATRO 110; [15]): 0%
- # Cured/Total (T. b. brucei EATRO 110; [8]): 9/15
- % Cured (T. b. brucei EATRO 110; [8]): 60%
- # Cured/Total (T. b. brucei EATRO 110; [9]): 8/15
- % Cured (T. b. brucei EATRO 110; [9]): 53%
- # Cured/Total (T. b. brucei EATRO 110; [10]): 4/5
- % Cured (T. b. brucei EATRO 110; [10]): 80%
- % effective (T. b. brucei EATRO 110; single doses of 5 or 10 mg/kg): ~ 50%
- activity in the acute (short term) EATRO 110 model, in words (T. b. brucei EATRO 110; text summary): less active than 9-DINO and Formycin B
- # Cured/Total (T. b. brucei LUMP 1001; 2.5 mg/kg i.p., 3 days): 0/10
- % Cured (T. b. brucei LUMP 1001; 2.5 mg/kg i.p., 3 days): 0%
- Avg. Day of Relapse (Range) (T. b. brucei LUMP 1001; 2.5 mg/kg i.p., 3 days): 35 days
- # Cured/Total (T. b. brucei LUMP 1001; 5 mg/kg i.p., 3 days): 0/10
- % Cured (T. b. brucei LUMP 1001; 5 mg/kg i.p., 3 days): 0%
- Avg. Day of Relapse (Range) (T. b. brucei LUMP 1001; 5 mg/kg i.p., 3 days): 35 days
- # Cured/Total (T. b. brucei LUMP 1001; 10 mg/kg i.p., 3 days): 0/10
- % Cured (T. b. brucei LUMP 1001; 10 mg/kg i.p., 3 days): 0%
- Avg. Day of Relapse (Range) (T. b. brucei LUMP 1001; 10 mg/kg i.p., 3 days): 39 (35-71) Day
- efficacy in CNS model in words (T. b. brucei LUMP 1001): did not produce complete cures
